In the assay the test system is MCF-7 breast cancer cell line. Nature of the assay: MTT assay against breast cancer cell line. As to conditions: Homo sapiens, MCF7, 72 hours after treatment; for cytotoxicity at 100 µM / viability at 100 µM: MCF-7, 100 uM; for cytotoxicity at 100 µM / cytotoxicity at 300 µM: read-out: % Dead cells; for viability at 100 µM / viability at 300 µM: read-out: % Live cells; for cytotoxicity at 300 µM / viability at 300 µM: MCF-7, 300 uM. The class given is cell-based. As for the experimental part:
In another embodiment, the functionalized maleimides and isomaleimides of Formula (I) are useful as antimicrobials and anti-cancer agents. MTT assay of compounds of Formula (I) is summarized below in Table-1 The compounds were tested against breast cancer cell line at 100 and 300 μM concentrations and % live and % dead cells were determined.
The compounds were evaluated for anti-cancer activity by testing them against breast cancer cell lines obtained from NCCS, Pune, India. The MITT assay was carried out. The assay procedure involves reconstitution of the pre-measured MTT reagent in the assay buffer, followed by its addition to the culture system. After dissolving the formazan crystals in the solubilization solution, results can be directly read on a suitable reader.
• 1. Harvest the cells; • 2. Seed 10,000 cells in 100 μl DMEM media/well in 96-well microtiter plate in triplicate; • 3. Incubate the cells at 37° C., 5% CO2 for 24 hours to achieve morphology; • 4. Treat the cells with varying concentrations of drugs; • 5. Controls included untreated cells and cells treated with 100 uM Doxorubicin; • 6. Incubate the cells for 72 hours after treatment; • 7. Add 10 μl of MTT to each well, including controls; • 8. Wrap the plate with aluminium foil to avoid exposure to light; • 9. Return the plate to the incubator for 2 hours; • 10. Observe the cells under an inverted microscope for presence of intracellular needle-shaped, dark purple coloured precipitate; • 11. When the purple precipitate is clearly visible under the microscope, add 100 μl of solubilization solution to the wells; • 12. Stir gently on a gyratory shaker to enhance dissolution of the crystals; • 13. Read the absorbance on a spectrophotometer or an ELISA reader at 570 nm with a reference wavelength higher than 650 nm.
(Formazan colour is commonly taken as a measure of viable cells.)

SMILES strings stand for the structures.

On to `CCOC(=O)CC1=C(Cc2cccc(Oc3ccccc3)c2)C(=O)O/C1=N\C1CCC(C)CC1` (stereo not drawn) [Compound 3c, Ethyl (Z)-2-(2-((4-methylcyclohexyl)imino)-5-oxo-4-(3-phenoxybenzyl)-2,5-dihydrofuran-3-yl) acetate], for which the cytotoxicity at 100 µM was 32.9%, the viability at 100 µM was determined as 67.1%, the cytotoxicity at 300 µM came out at 34.8% and the viability at 300 µM came out at 65.2%.

As to `CCOC(=O)CC1=C(Cc2cc(OC)ccc2OC)C(=O)O/C1=N\C1CCC(C)CC1` (stereo not drawn) [Compound 3d, Ethyl (Z)-2-(4-(2,5-dimethoxybenzyl)-2-((4-methylcyclohexyl)imino)-5-oxo-2,5-dihydrofuran-3-yl)acetate], the cytotoxicity at 100 µM came to 32.9%, the viability at 100 µM turned out to be 67.1%, the cytotoxicity at 300 µM turned out to be 54.4% and the viability at 300 µM was found to be 45.6%.

Turning to `CCOC(=O)CC1=C(Cc2ccc(Cl)cc2)C(=O)O/C1=N\C1CCC(C)CC1` (stereo not drawn) [Compound 3e, Ethyl (Z)-2-(4-(4-chlorobenzyl)-2-((4-methylcyclohexyl)imino)-5-oxo-2,5-dihydrofuran-3-yl)acetate], the cytotoxicity at 100 µM was 45.3%, the viability at 100 µM was found to be 54.7%, the cytotoxicity at 300 µM worked out at 53.7% and the viability at 300 µM was 46.3%.

Take `CCOC(=O)CC1=C(Cc2ccccc2F)C(=O)O/C1=N\C1CCC(C)CC1` (stereo not drawn) [Compound 3f, Ethyl (Z)-2-(4-(2-fluorobenzyl)-2-((4-methylcyclohexyl)imino)-5-oxo-2,5-dihydrofuran-3-yl)acetate]: the cytotoxicity at 100 µM worked out at 26.6%, the viability at 100 µM was determined as 73.4%, the cytotoxicity at 300 µM was 49.6% and the viability at 300 µM was 50.4%.

With `CCOC(=O)CC1=C(Cc2ccc(F)c(F)c2)C(=O)O/C1=N\C1CCC(C)CC1` (stereo not drawn) [Compound 3g, Ethyl (Z)-2-(4-(3,4-difluorobenzyl)-2-((4-methylcyclohexyl)imino)-5-oxo-2,5-dihydrofuran-3-yl)acetate], the cytotoxicity at 100 µM was found to be 26.4%, the viability at 100 µM was 73.6%, the cytotoxicity at 300 µM turned out to be 47.2% and the viability at 300 µM worked out at 52.8%.

With `CCOC(=O)CC1=C(Cc2cccc(C(F)(F)F)c2)C(=O)O/C1=N\C1CCC(C)CC1` (stereo not drawn) [Compound 3h, Ethyl (Z)-2-(2-((4-methylcyclohexyl)imino)-5-oxo-4-(3-(trifluoromethyl)benzyl)-2,5-dihydrofuran-3-yl)acetate], the cytotoxicity at 100 µM turned out to be 49.1%, the viability at 100 µM turned out to be 50.9%, the cytotoxicity at 300 µM is 60.9% and the viability at 300 µM is 39.1%.

As for `CCOC(=O)CC1=C(Cc2ccc3ccccc3c2)C(=O)O/C1=N\C1CCC(C)CC1` (stereo not drawn) [Compound 3j, Ethyl (Z)-2-(2-((4-methylcyclohexyl)imino)-4-(naphthalen-2-ylmethyl)-5-oxo-2,5-dihydrofuran-3-yl)acetate], the cytotoxicity at 100 µM was 51.7%, the viability at 100 µM came out at 48.3%, the cytotoxicity at 300 µM is 59.7% and the viability at 300 µM was found to be 40.3%.

In the case of `CCOC(=O)CC1=C(Cc2c3ccccc3cc3ccccc23)C(=O)O/C1=N\C1CCC(C)CC1` (stereo not drawn) [Compound 3k, Ethyl (Z)-2-(4-(anthracen-9-ylmethyl)-2-((4-methylcyclohexyl)imino)-5-oxo-2,5-dihydrofuran-3-yl)acetate], the cytotoxicity at 100 µM is 27.4%, the viability at 100 µM was determined as 72.5%, the cytotoxicity at 300 µM is 33% and the viability at 300 µM was found to be 67%.

For `CCOC(=O)CC1=C(C(c2ccccc2)c2ccccc2)C(=O)O/C1=N\C1CCC(C)CC1` (stereo not drawn) [Compound 3p, Ethyl (Z)-2-(4-benzhydryl-2-((4-methylcyclohexyl)imino)-5-oxo-2,5-dihydrofuran-3-yl)acetate], the cytotoxicity at 100 µM was found to be 43.5%, the viability at 100 µM turned out to be 56.5%, the cytotoxicity at 300 µM is 51.1% and the viability at 300 µM was 48.9%.

The values are drawn from patent US12729180B2, “Functionalized Maleimides and Isomaleimides and a process for preparation thereof” (COUNCIL OF SCIENTIFIC AND INDUSTRIAL RESEARCH, priority 2021, dated 2026).
